Test results as given in ChEMBL document CHEMBL5620412, “Discovery of benzofuran-2-carboxylic acid derivatives as lymphoid tyrosine phosphatase (LYP) inhibitors for cancer immunotherapy” (Eur J Med Chem, 2023).
Active and inactive are the calls of the source. The rule behind the calls is not given here.

Tests used:
[1] = Selectivity ratio of IC50 for inhibition of N-terminal His-tagged PTPN12 catalytic domain (1 to 294 residues) (unknown origin) expressed in Escherichia coli BL21 (DE3) cells to IC50 for inhibition of N-terminal His-tagged LYP catalytic domain (1 to 294 residues) (unknown origin) expressed in Escherichia coli BL21 (DE3) cells using pNPP as substrate
[2] = target: T1, Tyrosine-protein phosphatase non-receptor type 12 (Homo sapiens, UniProt Q05209); assay: Inhibition of N-terminal His-tagged PTPN12 catalytic domain (1 to 294 residues) (unknown origin) expressed in Escherichia coli BL21 (DE3) cells
T1 sequence (Q05209 whole entry): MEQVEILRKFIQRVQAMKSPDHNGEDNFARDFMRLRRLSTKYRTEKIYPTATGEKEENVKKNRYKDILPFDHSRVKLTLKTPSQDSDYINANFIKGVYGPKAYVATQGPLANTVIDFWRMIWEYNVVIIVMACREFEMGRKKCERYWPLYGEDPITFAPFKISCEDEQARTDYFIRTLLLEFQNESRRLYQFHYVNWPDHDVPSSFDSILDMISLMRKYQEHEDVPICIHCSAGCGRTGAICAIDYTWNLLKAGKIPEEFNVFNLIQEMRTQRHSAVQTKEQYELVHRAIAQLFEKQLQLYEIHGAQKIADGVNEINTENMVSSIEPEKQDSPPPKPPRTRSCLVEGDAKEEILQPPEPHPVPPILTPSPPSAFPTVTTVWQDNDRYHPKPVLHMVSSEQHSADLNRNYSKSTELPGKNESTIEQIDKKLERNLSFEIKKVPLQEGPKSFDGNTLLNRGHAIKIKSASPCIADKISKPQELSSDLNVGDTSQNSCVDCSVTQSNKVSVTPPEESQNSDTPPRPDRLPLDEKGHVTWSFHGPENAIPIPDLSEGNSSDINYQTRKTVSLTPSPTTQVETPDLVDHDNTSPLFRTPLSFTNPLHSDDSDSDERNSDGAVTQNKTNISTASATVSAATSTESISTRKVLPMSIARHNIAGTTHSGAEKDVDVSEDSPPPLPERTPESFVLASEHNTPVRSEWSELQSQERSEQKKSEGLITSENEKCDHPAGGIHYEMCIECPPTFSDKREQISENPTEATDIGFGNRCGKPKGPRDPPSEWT

[3] = target: T2, Tyrosine-protein phosphatase non-receptor type 1 (Homo sapiens, UniProt P18031); assay: Inhibition of N-terminal His-tagged PTP1B catalytic domain (1 to 294 residues) (unknown origin) expressed in Escherichia coli BL21 (DE3) cells
T2 sequence (P18031 whole entry): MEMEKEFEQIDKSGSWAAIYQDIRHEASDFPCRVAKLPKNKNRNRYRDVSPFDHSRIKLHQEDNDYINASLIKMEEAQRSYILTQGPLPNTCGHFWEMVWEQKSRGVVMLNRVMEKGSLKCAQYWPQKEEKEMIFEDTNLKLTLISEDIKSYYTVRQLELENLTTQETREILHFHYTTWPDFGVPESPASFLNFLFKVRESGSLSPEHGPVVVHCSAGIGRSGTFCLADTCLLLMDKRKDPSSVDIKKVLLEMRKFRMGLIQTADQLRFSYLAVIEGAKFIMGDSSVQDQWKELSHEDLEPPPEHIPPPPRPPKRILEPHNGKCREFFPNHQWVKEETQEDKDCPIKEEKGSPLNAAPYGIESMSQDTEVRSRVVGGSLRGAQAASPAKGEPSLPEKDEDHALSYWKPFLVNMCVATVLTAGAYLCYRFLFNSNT

[4] = target: T3, Tyrosine-protein phosphatase non-receptor type 22 (Homo sapiens, UniProt Q9Y2R2); assay: Inhibition of N-terminal His-tagged LYP catalytic domain (1 to 294 residues) (unknown origin) expressed in Escherichia coli BL21 (DE3) cells using pNPP as substrate by absorbance based plate reader analysis
T3 sequence (Q9Y2R2 whole entry): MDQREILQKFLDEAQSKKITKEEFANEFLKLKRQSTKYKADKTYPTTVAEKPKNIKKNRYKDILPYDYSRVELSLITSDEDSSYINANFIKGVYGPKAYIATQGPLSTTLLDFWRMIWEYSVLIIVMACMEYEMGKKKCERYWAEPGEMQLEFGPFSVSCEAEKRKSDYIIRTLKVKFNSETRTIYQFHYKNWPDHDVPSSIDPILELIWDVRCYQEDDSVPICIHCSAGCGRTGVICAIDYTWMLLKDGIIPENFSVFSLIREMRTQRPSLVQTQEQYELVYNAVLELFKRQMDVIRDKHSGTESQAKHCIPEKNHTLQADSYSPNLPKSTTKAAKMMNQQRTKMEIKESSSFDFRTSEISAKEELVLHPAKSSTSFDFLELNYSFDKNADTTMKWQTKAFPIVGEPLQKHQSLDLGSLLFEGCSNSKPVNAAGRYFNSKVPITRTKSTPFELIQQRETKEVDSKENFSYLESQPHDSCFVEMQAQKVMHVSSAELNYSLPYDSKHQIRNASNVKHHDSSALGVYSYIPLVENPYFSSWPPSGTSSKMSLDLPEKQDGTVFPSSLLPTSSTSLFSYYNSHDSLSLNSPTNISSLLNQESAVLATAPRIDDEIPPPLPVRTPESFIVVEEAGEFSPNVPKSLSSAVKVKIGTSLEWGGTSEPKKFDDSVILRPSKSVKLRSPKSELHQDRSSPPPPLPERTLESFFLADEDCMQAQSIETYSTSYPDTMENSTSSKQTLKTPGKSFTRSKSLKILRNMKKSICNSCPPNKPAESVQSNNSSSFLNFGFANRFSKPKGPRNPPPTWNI

[5] = target: T3, Tyrosine-protein phosphatase non-receptor type 22; assay: Competitive inhibition of N-terminal His-tagged LYP catalytic domain (1 to 294 residues) (unknown origin) expressed in Escherichia coli BL21 (DE3) cells using pNPP as substrate assessed as inhibition constant by Lineweaver-Burk plot analysis
Jurkat T [6] = assay: Activation of TCR signaling in human Jurkat T cells assessed as increase in LCK phosphorylation preincubated with compound for 1 hrs followed by anti-CD3 stimulation and measured after 45 mins by immunoblot analysis; assay type: cell-based; conditions: filed as activator, time 105.0 min
Jurkat T [7] = assay: Activation of TCR signaling in […] transfected human Jurkat T cells assessed as increase in ERK phosphorylation preincubated with compound for 1 hrs followed by anti-CD3 stimulation and measured after 45 mins by immunoblot analysis; assay type: cell-based; conditions: time 105.0 min
[8] = Toxicity in C57BL/6J syngenic mouse implanted with mouse MC-38 cells assessed as effect on body weight at 50 mg/kg, IG administered twice daily for 14 days; assay type: organism-based; conditions: in vivo, po, 336 h, time 14 day
MC-38 [9] = assay: Antitumor immunity against mouse MC-38 cells implanted in syngenic C57BL/6J mouse model assessed as increase in tumor infiltration of CD8+ T cells at 50 mg/kg, IG administered twice daily for 14 days by DAPI staining based immunofluorescence analysis; assay type: functional, organism-based; conditions: time 14.0 day
MC-38 [10] = assay: Antitumor immunity against mouse MC-38 cells implanted in syngenic C57BL/6J mouse model assessed as upregulation of PD1 expression in CD4+ T cells at 50 mg/kg, IG administered twice daily for 14 days by flow cytometric analysis; assay type: functional, organism-based; conditions: time 14.0 day
[11] = Upregulation of PD-L1 expression in mouse MC-38 cells at 20 uM incubated for 48 hrs by flow cytometric analysis (reference value: 23.3%); assay type: functional

Structure (SMILES) | IC50 [2] | IC50 [3] | IC50 [4] | Ki [5] | Ratio IC50 [1] | Activity (Jurkat T [6]) | Activity (Jurkat T [7]) | Activity [8] | Activity (MC-38 [9]) | Activity (MC-38 [10]) | Activity [11]
O=C(O)c1cc2cc(N(Cc3ccc(-c4ccccc4)cc3)S(=O)(=O)c3ccc(-c4cccc(O)c4)cc3)ccc2o1 | 10.6 µM | 6.4 µM | 3.59 µM |  | 1.8 |  |  |  |  |  | 
O=C(O)c1cc2cc(N(Cc3cccc(-c4ccccc4)c3)S(=O)(=O)c3ccc(-c4ccccc4)cc3)ccc2o1 | 6.4 µM | 5.9 µM | 3.23 µM |  | 1.8 |  |  |  |  |  | 
COc1ccc(-c2ccc(CN(c3ccc4oc(C(=O)O)cc4c3)S(=O)(=O)c3ccc(Cl)c([N+](=O)[O-])c3)cc2)cc1 | 12.3 µM | 13.7 µM |  | 1.34 µM |  | Active | inactive | Non-Toxic | Active | Active | 43.6%

Now from value to compound, other results behind:

IC50 [2] | IC50 [3] | IC50 [4] | Ki [5] | Structure (SMILES) | Ratio IC50 [1] | Activity (Jurkat T [6]) | Activity (Jurkat T [7]) | Activity [8] | Activity (MC-38 [9]) | Activity (MC-38 [10]) | Activity [11]
11.7 µM | 10.7 µM | 2.55 µM | 0.93 µM | O=C(O)c1cc2cc(N(Cc3ccc(OCc4ccccc4)cc3)S(=O)(=O)c3ccc(-c4ccccc4)cc3)ccc2o1 | > 3.5 | Active | inactive | Non-Toxic | Active | Active | 59.2%
8.2 µM | 7.1 µM | 6.1 µM | 4.38 µM | CC(=O)C1=C(C)N=c2s/c(=C/c3ccc(OCc4ccc(C(=O)O)cc4)cc3)c(=O)n2C1c1ccc(N(C)C)cc1 (stereo not drawn) | 1.2 |  |  |  |  |  | 
